Results as given in PMC4104029, “Mechanism of Action of Compound-13: An α1-Selective Small Molecule Activator of AMPK” (Chemistry & Biology, 2014).

What was measured:
[1] = system: panel of 138 protein kinases; assay: Kinase inhibition screen; format: biochemical; details: 10 μM
Protocol: Supplemental Figure Legends:
Figure S1, related to Figures 1-3. Subunit composition of AMPK preparations used in this study. (A) Heterotrimeric AMPK complexes (10 ng) produced in both Sf9 (Sigma and Signalchem) and E.coli (in our laboratory) were analysed by Western blotting using isoform specific antibodies. Note that both the α2/α1-HOOK and α2/α1-LOOP chimeras are no longer recognised by the anti-α2 antibody as the epitope has been replaced (see Fig S4). (B) Heterotrimeric AMPK α2/α1 chimeric complexes expressed in E.coli (2 μg) were separated by SDS-PAGE and stained with Coomassie G-250. Arrows indicate the position of the […]
Figure S2, related to Figure 1. C2 has negligible effects on a panel of 138 protein kinases.
Kinase inhibition screen was performed by the International Centre for Kinase profiling (Dundee). Assays were performed in duplicate using 10 µM C2 and are representative of two independent screens. Results are shown in rank order as mean % activity compared with controls in the absence of compound ± SD. […]
Figure S3, related to Figure 2. […] Results are expressed as mean Pi incorporated in nmol.min-1.mg-1 ± SD. […] Results are expressed as fold increase in activity relative to controls in the absence of compound ± SD.
(E) C2 and AMP displace a GST-AMPKγ2 subunit fusion from ATP-γ-Sepharose. […] The presence of eluted AMPKγ2 was analysed by SDS-PAGE and staining with colloidal Coomassie. […]

[2] = system: primary mouse hepatocytes; assay: Fatty acid esterification, [3H]palmitic acid incorporation into triglycerides; format: cell-based; details: 30 min treatment, then 60 min labeling
Protocol: Figure 5 C13 Inhibits Lipid Synthesis and Fatty Acid Esterification in Mouse Hepatocytes in an AMPK-Dependent Manner (A) Mouse hepatocytes were treated with the indicated concentrations of C13 and labeled with [1-^14C]acetate for 3 hr. A769662 (100 μM) and AICAR (0.5 mM) were included as positive controls. Rates of fatty acid and sterol synthesis were estimated by incorporation into saponifiable and nonsaponifiable lipids. Results are expressed as the mean acetate incorporated in micromoles per gram-hour ± SD and are representative of two independent experiments. (B) Mouse hepatocytes were treated with the indicated compounds for 30 min and labeled with media containing 0.5 mM palmitic acid (1 mCi⋅mmol^−1 [9,10-^3H]palmitic acid) for an additional 60 min. Incorporation into triglyceride was determined as described in Experimental Procedures and results are expressed as palmitate incorporated in micromoles per gram-hour ± SD and are representative of three independent experiments. […] Results are expressed as percentage WT vehicle and represent the mean ± SD for three independent experiments. […]
Fatty acid esterification was determined by labeling primary hepatocytes with [9,10-^3H(N)]palmitate. […] Lipids were stained with iodine vapor and triglyceride eluted from TLC scrapings with 1:1 ethanol:Triton X-100, and the incorporation of [^3H] was determined by scintillation counting.

Question: What does the source list for O=P(O)(O)c1ccc(-c2cc(O)on2)o1 [Compound C2, 5-(5-hydroxyl-isoxazol-3-yl)-furan-2-phosphonic acid]?
Answer: effect on upstream kinases of AMPK ([1]; LKB1, CaMKKβ, and TAK1): did not affect; effect on kinase activity ([1]; includes AMPK-related kinase family): majority were not affected

Question: With CC(C)C(=O)OCOP(=O)(OCOC(=O)C(C)C)c1ccc(C2=NOC(=O)C2)o1 [Compound C13] as the compound, how does the fatty acid esterification [2] read?
Answer: The fatty acid esterification was “inhibited”.
